Experimental data: patent US20130011845A1, “MICRORNA REGULATING THE INSULIN SIGNALING PATHWAY, AND METHOD FOR SCREENING MATERIAL FOR CONTROLLING THE ACTION OF A TARGET THEREOF” (SNU R & DB Foundation, priority 2009, published 2013)

Legend:
[1] = test system: FOG2 3′UTR; test: dual-luciferase 3′UTR reporter assay, pAC-FOG2; type: cell-based; settings: luciferase reporter with FOG2 3′UTR, human Hela cell lines; average of at least two independent experiments
Method: (§1) In order to determine whether the target genes identified in Example 7 are in actuality targets of miR-8 and miR-200 family miRNAs, the inventors performed cloning. In other words, […] containing the miRNA target sites. Specifically, in order to obtain cDNAs of respective target genes, from drosophila S2 cell lines or human Hela cell lines, total RNA was extracted by using RNeasy mini kit (QIAGEN, US). 1 μg of total RNA and 1 μl of Oligo-dT (Invitrogen, US) were charged with up to 50 μl of distilled water, and placed into SuperScript First-Strand Synthesis System (Invitrogen, US), followed by RT-PCR reaction. Through the reaction at 65° C. for 6 min, at 4° C. for 5 min, at 42° C. for 60 min, at 95° C. for 5 min, and at 4° C. for 5 min, cDNA was synthesized. By using the cDNA (3˜5 μg) as template, and using a primer pair on respective genes noted in Table 3 and PCR Mastermix (Promega, US), PCR was performed on 3′UTR of ush, Lap1, CG8445, dbo, Lar, Ced-12, CG12333, cbt, FOG2, SEPT7, RIN2, SHC1, HOXB5, LF11, TCF7L1, ERBB21P, ELMO2, BAP1, WDR37, KLHL20, PTPRD, RASSF2 and VAC14 from among the target genes selected in Example 7. Herein, PCRP on atro as a drosophila control gene was also performed. After the reaction was completed, the PCR product on each gene's 3′UTR region was cleaved by each of the following restriction enzymes:
(§2) Then, it was cloned into pAC5.1 luciferase vector (a kind gift of Elisa Izaurralde) cleaved by the same restriction enzymes so as to produce a reporter plasmid having a miR-8 or miR-200 family target sequence in luciferase gene's 3′UTR sequence.
(§3) Reporter plasmids and renilla luciferase expression vectors (Promega, US), as noted in Table 4, and miRNAs of miR-200 family of miR-141, miR-200a (hsa-miR-200a, SEQ ID: 87: 5′-[…]-3′), miR-200b, miR-200c (has-miR-200c, SEQ ID: 88: 5′-[…]-3′) and miR-429, and miR-8 (dme-miR-8, SEQ ID: 89: 5′-[…]-3′) were bought from Samchonri and cotransfected into drosophila S2 cell lines or human Hela cell lines. Then, the activities of luciferase were measured through dual-luciferase assay (Promega, US) by a luminometer (Biorad). Then, 7 gene pairs that respond both to miR-8 and to mir-200 family miRNAs in Drosophila and human cells, respectively were identified (see FIG. 15).

[2] = test system: ERBB2IP 3′UTR; test: dual-luciferase 3′UTR reporter assay, pAC-ERBB2IP; type: cell-based; settings: luciferase reporter with ERBB2IP 3′UTR, human Hela cell lines; average of at least two independent experiments
Method: as §1, §2, §3

[3] = test system: BAP1 3′UTR; test: dual-luciferase 3′UTR reporter assay, pAC-BAP1; type: cell-based; settings: luciferase reporter with BAP1 3′UTR, human Hela cell lines; average of at least two independent experiments
Method: as §1, §2, §3

[4] = test system: KLHL20 3′UTR; test: dual-luciferase 3′UTR reporter assay, pAC-KLHL20; type: cell-based; settings: luciferase reporter with KLHL20 3′UTR, human Hela cell lines; average of at least two independent experiments
Method: as §1, §2, §3

[5] = test system: WDR37 3′UTR; test: dual-luciferase 3′UTR reporter assay, pAC-WDR37; type: cell-based; settings: luciferase reporter with WDR37 3′UTR, human Hela cell lines; average of at least two independent experiments
Method: as §1, §2, §3

[6] = test system: KLF11 3′UTR; test: dual-luciferase 3′UTR reporter assay, pAC-KLF11; type: cell-based; settings: luciferase reporter with KLF11 3′UTR, human Hela cell lines; average of at least two independent experiments
Method: as §1, §2, §3

[7] = test system: TCF7L1 3′UTR; test: dual-luciferase 3′UTR reporter assay, pAC-TCF7L1; type: cell-based; settings: luciferase reporter with TCF7L1 3′UTR, human Hela cell lines; average of at least two independent experiments
Method: as §1, §2, §3

[8] = test system: SEPT7 3′UTR; test: dual-luciferase 3′UTR reporter assay, pAC-SEPT7; type: cell-based; settings: luciferase reporter with SEPT7 3′UTR, human Hela cell lines; average of at least two independent experiments
Method: as §1, §2, §3

[9] = test system: RIN2 3′UTR; test: dual-luciferase 3′UTR reporter assay, pAC-RIN2; type: cell-based; settings: luciferase reporter with RIN2 3′UTR, human Hela cell lines; average of at least two independent experiments
Method: as §1, §2, §3

[10] = test system: RASSF2 3′UTR; test: dual-luciferase 3′UTR reporter assay, pAC-RASSF2; type: cell-based; settings: luciferase reporter with RASSF2 3′UTR, human Hela cell lines; average of at least two independent experiments
Method: as §1, §2, §3

[11] = test system: VAC14 3′UTR; test: dual-luciferase 3′UTR reporter assay, pAC-VAC14; type: cell-based; settings: luciferase reporter with VAC14 3′UTR, human Hela cell lines; average of at least two independent experiments
Method: as §1, §2, §3

[12] = test system: MCF-7 cell lines; test: cell proliferation by counting the number of cells; type: cell-based, human; settings: MCF-7 cell lines transduced; counted on day 1, 4, 5, 6, 7 and 8; compared to untreated or siGFP cells
Description: It has been known that when human miRNAs, that is, miR-200 family (miR-200a, miR-200b, miR-200c, miR-141, and miR-429) are transduced into human cell lines, cell growth is promoted (Park, S Y et al., 2009, Nat Struct Mol Biol 16, 23-29). In MCF-7 cell lines not treated with anything, and MCF-7 cell lines transduced with siRNA targeting GFP (siGFP, SEQ ID: 1: 5′-UGAAUUAGAUGGCGAUGUU-3′, Samchonri), miR-200 family [miR-141(has-miR-141, SEQ ID: 2: 5′-[…]-3′), miR-200b (has-miR-200b, SEQ ID: 3: 5′-[…]-3′), miR-429(has-miR-429, SEQ ID: 4: 5′-[…]-3′)] and miR-29b (known to inhibit cell proliferation), on day 1, 4, 5, 6, 7 and 8, the inventors counted the number of cells and measured cell proliferation.

Row | Substance | Represion fold, FOG2 [1] | Represion fold, ERBB2IP [2] | Represion fold, BAP1 [3] | Represion fold, KLHL20 [4] | Represion fold, WDR37 [5] | Represion fold, KLF11 [6] | Represion fold, TCF7L1 [7] | Represion fold, SEPT7 [8] | Represion fold, RIN2 [9] | Represion fold, RASSF2 [10] | Represion fold, VAC14 [11] | cell proliferation (number of cells) [12]
1 | 5′-UAAUACUGUCUGGUAAAACCGU-3′ (listed as RNA, chemistry not given here) [miR-429] | 0.47 fold | 0.54 fold | 0.67 fold | 0.55 fold | 1.31 fold | 1.07 fold | 0.71 fold | 1.14 fold | 1.41 fold | 1.01 fold | 1.17 fold | increased cell proliferation
2 | 5′-UAACACUGUCUGGUAACGAUGU-3′ (listed as RNA, chemistry not given here) [miR-200a] | 0.64 fold | 1.18 fold | 1.04 fold | 1.02 fold | 0.76 fold | 1.20 fold | 1.17 fold | 0.97 fold | 2.49 fold | 1.36 fold | 1.19 fold | 
3 | 5′-UAAUACUGCCUGGUAAUGAUGA-3′ (listed as RNA, chemistry not given here) [miR-200b] | 0.37 fold | 0.57 fold | 0.79 fold | 0.85 fold | 1.16 fold | 1.02 fold | 0.81 fold | 0.95 fold | 1.91 fold | 1.28 fold | 1.20 fold | increased cell proliferation
4 | 5′-UAACACUGUCUGGUAAAGAUGG-3′ (listed as RNA, chemistry not given here) [miR-141] | 0.59 fold | 0.7 fold | 0.84 fold | 0.84 fold | 1.07 fold | 1.03 fold | 0.91 fold | 1.00 fold | 1.10 fold | 0.90 fold | 0.99 fold | increased cell proliferation
